Test results reported in patent publication US8399452B2, “Dibenzo[b,f][1,4]oxazepin-11-yl-N-hydroxybenzamides as HDAC inhibitors” (Methylgene Inc., priority 2006, dated 2013).

target: histone deacetylase (HDAC Enzyme); assay: Inhibition of Histone Deacetylase Enzymatic Activity (Boc-Lys(Ac)-AMC, Fluor-de-Lys developer); assay type: biochemical; conditions: Table 9; read-out: HDAC Inhibition (IC50 μM) HDAC Enzyme
Experimental: The following protocol is used to assay the compounds of the invention.
The mixture is pre-incubated for 5 minutes at room temperature. The reaction is started by bringing the temperature to 37° C. and adding 16 μl substrate. Total reaction volume is 50 μl.
In the Tables 8, 9 and 10, A≦[…]<B≦0.1 μM; 0.1 μM<C≦1 μM; and 1 μM<D≦10 μM.

| Compound | IC50 |
| --- | --- |
| O=C(NO)c1cnc(N2C[C@@H]3C[C@H]2CN3c2cccc(S(F)(F)(F)(F)F)c2)nc1 | < 0.05 µM |
| O=C(NO)c1cnc(N2CC3CC2CO3)nc1 (centres unmarked) [2-(2-oxa-5-azabicyclo[2.2.1]heptan-5-yl)-N-hydroxypyrimidine-5-carboxamide] | 0.1 to 1 µM |
| N#Cc1cccc(N2CC3CC2CN3c2ncc(C(=O)NO)cn2)c1 (centres unmarked) [2-(5-(3-cyanophenyl)-2,5-diazabicyclo[2.2.1]heptan-2-yl)-N-hydroxypyrimidine-5-carboxamide] | < 0.05 µM |
| O=C(NO)c1cnc(N2C[C@@H]3C[C@H]2CN3)nc1 [2-((1S,4S)-2,5-diazabicyclo[2.2.1]heptan-2-yl)-N-hydroxypyrimidine-5-carboxamide] | 0.1 to 1 µM |
| O=C(NO)c1cnc(N2C[C@@H]3C[C@H]2CN3c2ccc3c(c2)OC(F)(F)O3)nc1 [2-((1S,4S)-5-(2,2-difluorobenzo[d][1,3]dioxol-5-yl)-2,5-diazabicyclo[2.2.1]heptan-2-yl)-N-hydroxypyrimidine-5-carboxamide] | < 0.05 µM |
| O=C(NO)c1cnc(N2C[C@@H]3C[C@H]2CN3C(=O)C(c2ccccc2)c2ccccc2)nc1 [2-((1S,4S)-5-(2,2-diphenylacetyl)-2,5-diazabicyclo[2.2.1]heptan-2-yl)-N-hydroxypyrimidine-5-carboxamide] | 0.05 to 0.1 µM |
| O=C(NO)c1cnc(N2C[C@@H]3C[C@H]2CN3c2ccc(C(F)(F)F)cc2F)nc1 [2-((1S,4S)-5-(2-fluoro-4-(trifluoromethyl)phenyl)-2,5-diazabicyclo[2.2.1]heptan-2-yl)-N-hydroxypyrimidine-5-carboxamide] | < 0.05 µM |
| O=C(NO)c1cnc(N2C[C@@H]3C[C@H]2CN3c2cc(C(F)(F)F)cc(C(F)(F)F)c2)nc1 [2-((1S,4S)-5-(3,5-bis(trifluoromethyl)phenyl)-2,5-diazabicyclo[2.2.1]heptan-2-yl)-N-hydroxypyrimidine-5-carboxamide] | < 0.05 µM |
| CN(C)Cc1cccc(N2C[C@@H]3C[C@H]2CN3c2ncc(C(=O)NO)cn2)c1 [2-((1S,4S)-5-(3-((dimethylamino)methyl)phenyl)-2,5-diazabicyclo[2.2.1]heptan-2-yl)-N-hydroxypyrimidine-5-carboxamide] | < 0.05 µM |
| O=C(NO)c1cnc(N2C[C@@H]3C[C@H]2CN3c2cccc(OC(F)F)c2)nc1 [2-((1S,4S)-5-(3-(difluoromethoxy)phenyl)-2,5-diazabicyclo[2.2.1]heptan-2-yl)-N-hydroxypyrimidine-5-carboxamide] | < 0.05 µM |
| CN(C)C(=O)c1cccc(N2C[C@@H]3C[C@H]2CN3c2ncc(C(=O)NO)cn2)c1 [2-((1S,4S)-5-(3-(dimethylcarbamoyl)phenyl)-2,5-diazabicyclo[2.2.1]heptan-2-yl)-N-hydroxypyrimidine-5-carboxamide] | < 0.05 µM |
| O=C(NO)c1cnc(N2C[C@@H]3C[C@H]2CN3c2cccc(F)c2)nc1 [2-((1S,4S)-5-(3-fluorophenyl)-2,5-diazabicyclo[2.2.1]heptan-2-yl)-N-hydroxypyrimidine-5-carboxamide] | < 0.05 µM |
| O=C(NO)c1cnc(N2C[C@@H]3C[C@H]2CN3c2ccc(Cl)cc2)nc1 [2-((1S,4S)-5-(4-chlorophenyl)-2,5-diazabicyclo[2.2.1]heptan-2-yl)-N-hydroxypyrimidine-5-carboxamide] | < 0.05 µM |
| O=C(NO)c1cnc(N2C[C@@H]3C[C@H]2CN3c2ccc(F)cc2)nc1 [2-((1S,4S)-5-(4-fluorophenyl)-2,5-diazabicyclo[2.2.1]heptan-2-yl)-N-hydroxypyrimidine-5-carboxamide] | 0.05 to 0.1 µM |
| O=C(NO)c1cnc(N2C[C@@H]3C[C@H]2CN3c2cccc3nonc23)nc1 [2-((1S,4S)-5-(benzo[c][1,2,5]oxadiazol-4-yl)-2,5-diazabicyclo[2.2.1]heptan-2-yl)-N-hydroxypyrimidine-5-carboxamide] | < 0.05 µM |
| O=C(NO)c1cnc(N2C[C@@H]3C[C@H]2CN3c2ccc3nonc3c2)nc1 [2-((1S,4S)-5-(benzo[c][1,2,5]oxadiazol-5-yl)-2,5-diazabicyclo[2.2.1]heptan-2-yl)-N-hydroxypyrimidine-5-carboxamide] | < 0.05 µM |
| O=C(NO)c1cnc(N2C[C@@H]3C[C@H]2CN3c2ccc3nsnc3c2)nc1 [2-((1S,4S)-5-(benzo[c][1,2,5]thiadiazol-5-yl)-2,5-diazabicyclo[2.2.1]heptan-2-yl)-N-hydroxypyrimidine-5-carboxamide] | < 0.05 µM |
| O=C(NO)c1cnc(N2C[C@@H]3C[C@H]2CN3c2ccc3c(c2)OCO3)nc1 [2-((1S,4S)-5-(benzo[d][1,3]dioxol-5-yl)-2,5-diazabicyclo[2.2.1]heptan-2-yl)-N-hydroxypyrimidine-5-carboxamide] | < 0.05 µM |
| O=C(NO)c1cnc(N2C[C@@H]3C[C@H]2CN3c2noc3ccccc23)nc1 [2-((1S,4S)-5-(benzo[d]isoxazol-3-yl)-2,5-diazabicyclo[2.2.1]heptan-2-yl)-N-hydroxypyrimidine-5-carboxamide] | < 0.05 µM |
| O=C(NO)c1cnc(N2C[C@@H]3C[C@H]2CN3C(c2ccccc2)c2ccccc2)nc1 [2-((1S,4S)-5-benzhydryl-2,5-diazabicyclo[2.2.1]heptan-2-yl)-N-hydroxypyrimidine-5-carboxamide] | < 0.05 µM |
| O=C(NO)c1cnc(N2C[C@@H]3C[C@H]2CN3C(=O)c2ccccc2)nc1 [2-((1S,4S)-5-benzoyl-2,5-diazabicyclo[2.2.1]heptan-2-yl)-N-hydroxypyrimidine-5-carboxamide] | < 0.05 µM |
| O=C(NO)c1cnc(N2C[C@@H]3C[C@H]2CN3Cc2ccccc2)nc1 [2-((1S,4S)-5-benzyl-2,5-diazabicyclo[2.2.1]heptan-2-yl)-N-hydroxypyrimidine-5-carboxamide] | 0.1 to 1 µM |

same assay, conditions: Table 10; read-out: HDAC Inhibition (IC50 μM) HDAC Enzyme

| Compound | IC50 |
| --- | --- |
| O=C(NO)c1cnc(N2CCCN(c3ncc(C(F)(F)F)cc3Cl)CC2)nc1 | < 0.05 µM |
| O=C(NO)c1cnc(N2C[C@@H]3C[C@]3(c3ccc(Cl)c(Cl)c3)C2)nc1 | 0.1 to 1 µM |
| O=C(NO)c1ccc(OCCN2C(=O)c3ccccc3Oc3ccccc32)cc1Cl | 1 to 10 µM |
| O=C(NO)c1cnc(NC2c3ccccc3C=Cc3ccccc32)nc1 | < 0.05 µM |
| O=C(NO)c1cnc(NC2c3ccccc3C=C(F)c3ccccc32)nc1 (centres unmarked) | < 0.05 µM |
| O=C(NO)c1cnc(C2c3ccccc3C=Cc3ccccc32)nc1 | 0.1 to 1 µM |
| O=C(NO)c1cn2c(n1)sc1ccccc12 | 0.1 to 1 µM |
| O=C(NO)c1cnc(N2C[C@H]3C[C@@]3(c3cccc(C(F)(F)F)c3)C2)nc1 | 0.1 to 1 µM |
| O=C(NO)c1cnc(N2C[C@H]3C[C@@]3(c3ccc(C(F)(F)F)cc3)C2)nc1 | 0.1 to 1 µM |
| O=C(/C=C/c1ccc(CN2C(=O)c3ccccc3Oc3ccccc32)cc1)NO | < 0.05 µM |
| O=C(/C=C/c1ccc(CN2C(=O)CN=C(c3ccccc3)c3ccccc32)cc1)NO | 0.05 to 0.1 µM |
| O=C(NO)c1ccc(/C=C/CN2C(=O)c3ccccc3Oc3ccccc32)cc1 | 0.05 to 0.1 µM |
| O=C(NO)c1cnc(N2C[C@H]3C[C@@]3(c3ccc(Cl)c(Cl)c3)C2)nc1 [2-((1R,5S)-1-(3,4-dichlorophenyl)-3-azabicyclo[3.1.0]hexan-3-yl)-N-hydroxypyrimidine-5-carboxamide] | 0.1 to 1 µM |

Second part, the compound after the results:

| IC50 | Compound |
| --- | --- |
| 0.05 to 0.1 µM | O=C(NO)c1ccc(OCCN2C(=O)c3ccccc3Oc3ccccc32)cc1F |
| 0.1 to 1 µM | O=C(CCCCCN1C(=O)c2ccccc2N(C2CC2)c2ccccc21)NO |
| 0.1 to 1 µM | O=C(CCCCCCN1C(=O)c2ccccc2N(C2CC2)c2ccccc21)NO |
| 0.1 to 1 µM | O=C(C=C1c2ccccc2C=Cc2ccccc21)NO |
| 1 to 10 µM | O=C(C=C1c2ccccc2CCc2ccccc21)NO |
| 0.1 to 1 µM | O=C(CCCCCCCON=C1c2ccccc2CCc2ccccc21)NO |
| 0.1 to 1 µM | O=C(CCCCCCON=C1c2ccccc2CCc2ccccc21)NO |
| 0.1 to 1 µM | O=C(CCCCCON=C1c2ccccc2CCc2ccccc21)NO |
| 0.1 to 1 µM | O=C(CCCON=C1c2ccccc2CCc2ccccc21)NO |
| < 0.05 µM | O=C(NO)c1ccc(CNC2c3ccccc3CCc3ccccc32)cc1 |
| 0.1 to 1 µM | O=C(NO)c1ccc(CON=C2c3ccccc3CCc3ccccc32)cc1 |
| 0.05 to 0.1 µM | O=C(/C=C/c1ccc(CNC2c3ccccc3CCc3ccccc32)cc1)NO |
| 0.1 to 1 µM | O=C(NO)c1ccc(ON=C2c3ccccc3CCc3ccccc32)cc1 |
| < 0.05 µM | O=C(NO)c1cnc(NC2c3ccccc3CCc3ccccc32)nc1 |
| 0.1 to 1 µM | O=C(CCCCCON=c1c2ccccc2ccc2ccccc12)NO |
| 0.1 to 1 µM | O=C(CCCCON=C1c2ccccc2CCc2ccccc21)NO |
| 0.1 to 1 µM | O=C(NO)c1cnc(N2CCN(C3c4ccccc4CCc4ccccc43)CC2)nc1 |
| < 0.05 µM | O=C(NO)c1cnc(NCC2c3ccccc3CCc3ccccc32)nc1 |
| < 0.05 µM | CN(c1ncc(C(=O)NO)cn1)C1c2ccccc2CCc2ccccc21 |
| 0.1 to 1 µM | O=C(CCCCCCN1c2ccccc2Oc2ccccc2S1(=O)=O)NO |
| 0.1 to 1 µM | O=C(CCCCCCC(=O)NC1c2ccccc2C=Cc2ccccc21)NO |
| 0.1 to 1 µM | O=C(CCCCCC(=O)NC1c2ccccc2C=Cc2ccccc21)NO |
| < 0.05 µM | O=C(NO)c1ccc(NC2c3ccccc3CCc3ccccc32)nc1 |
| 0.1 to 1 µM | O=C(NO)c1ccc(COC2c3ccccc3CCc3ccccc32)cc1 |
| 0.1 to 1 µM | O=C(NO)c1cccc(COC2c3ccccc3CCc3ccccc32)c1 |
| 0.1 to 1 µM | O=C(NO)c1cccc(CNC2c3ccccc3CCc3ccccc32)c1 |
| 0.1 to 1 µM | O=C(Cc1ccc(CN2C(=O)c3ccccc3Oc3ccccc32)cc1)NO |
| 0.1 to 1 µM | O=C(CCn1cc(CN2C(=O)c3ccccc3Oc3ccccc32)nn1)NO |
| 0.1 to 1 µM | O=C(NO)c1cnc(NC2c3ccccc3-c3ccccc32)nc1 [2-(9H-fluoren-9-ylamino)-N-hydroxypyrimidine-5-carboxamide] |

same assay, conditions: read-out: HDAC Inhibtion (IC50 μM) HDAC Enzyme

| Compound | IC50 |
| --- | --- |
| O=C(NO)c1ccc(C2=Nc3ccccc3S(=O)(=O)c3ccccc32)cc1 | 1 to 10 µM |
| O=C(NO)c1ccc(C2=Nc3ccccc3[S+]([O-])c3ccccc32)cc1 (centres unmarked) | 0.1 to 1 µM |
| O=C(NO)c1ccc(C2=Nc3cncnc3N3CCc4cccc2c43)cc1 | 0.1 to 1 µM |
| CN1CCN(C2=Nc3cc(C(=O)NO)ccc3Oc3ccccc32)CC1 | 0.1 to 1 µM |
